{
  "source": "patent US7812165B2",
  "about": "“6-substituted pyridoindolone derivatives, production and therapeutic use thereof” (sanofi-aventis, priority 2004, dated 2010)",
  "data": [
    {"smiles": "CCON=Cc1ccc2[nH]c3c(cc(-c4ccc(OC)cc4OC)c(=O)n3C)c2c1", "note": "[Compound 7, 3-(2,4-Dimethoxyphenyl)-1-methyl-2-oxo-2,9-dihydro-1H-pyrido[2,3-b]indole-6-carbaldehyde O-ethyloxime]", "values": [
      {"measurement": "melting point", "value": 295, "unit": "°C"}
    ]}
  ]
}
